# Assay results as given in BindingDB's records for doi:10.1016/j.ejmech.2010.02.027 (University of Florida, 2010).
# Target: Neuronal acetylcholine receptor subunit alpha-4/beta-2 (Rattus norvegicus, UniProt P09483+P12390)
# Test: Displacement of [3H]cytisine from alpha4beta2 nAChR in rat brain membrane after 3 hrs
# Chain of Neuronal acetylcholine receptor subunit alpha-4/beta-2 (P09483 whole entry): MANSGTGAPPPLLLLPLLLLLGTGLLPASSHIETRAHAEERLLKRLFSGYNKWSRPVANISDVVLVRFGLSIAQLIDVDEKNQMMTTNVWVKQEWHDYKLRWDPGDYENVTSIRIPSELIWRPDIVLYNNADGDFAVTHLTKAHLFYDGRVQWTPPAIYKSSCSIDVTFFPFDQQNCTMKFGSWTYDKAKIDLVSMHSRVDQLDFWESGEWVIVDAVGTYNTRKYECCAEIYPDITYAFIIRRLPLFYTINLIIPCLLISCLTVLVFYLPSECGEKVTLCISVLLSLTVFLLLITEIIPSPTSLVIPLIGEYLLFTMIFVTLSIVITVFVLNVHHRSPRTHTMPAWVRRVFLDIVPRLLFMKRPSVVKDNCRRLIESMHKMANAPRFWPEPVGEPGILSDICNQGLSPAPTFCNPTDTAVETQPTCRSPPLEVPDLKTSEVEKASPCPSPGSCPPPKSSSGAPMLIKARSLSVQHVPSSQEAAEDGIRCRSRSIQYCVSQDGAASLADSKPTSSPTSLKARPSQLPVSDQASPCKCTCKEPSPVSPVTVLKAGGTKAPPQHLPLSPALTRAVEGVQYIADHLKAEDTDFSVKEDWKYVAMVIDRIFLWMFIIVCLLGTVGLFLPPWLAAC
# Chain of Neuronal acetylcholine receptor subunit alpha-4/beta-2 (P12390 whole entry): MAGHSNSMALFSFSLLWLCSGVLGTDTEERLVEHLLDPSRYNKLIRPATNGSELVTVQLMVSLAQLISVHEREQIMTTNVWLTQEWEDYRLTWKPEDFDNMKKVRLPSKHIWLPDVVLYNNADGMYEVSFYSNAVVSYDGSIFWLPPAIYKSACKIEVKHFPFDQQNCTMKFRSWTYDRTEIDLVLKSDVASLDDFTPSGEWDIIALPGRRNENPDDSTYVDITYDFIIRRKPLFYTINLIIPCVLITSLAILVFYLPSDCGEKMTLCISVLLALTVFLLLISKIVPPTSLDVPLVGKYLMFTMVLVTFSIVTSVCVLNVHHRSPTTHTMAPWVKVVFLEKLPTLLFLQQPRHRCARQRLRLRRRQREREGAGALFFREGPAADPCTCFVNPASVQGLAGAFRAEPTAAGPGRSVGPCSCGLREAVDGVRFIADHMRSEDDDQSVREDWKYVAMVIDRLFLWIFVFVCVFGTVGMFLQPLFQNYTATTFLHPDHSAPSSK
row,Structure (SMILES),Ki [nM]
1,CC(=O)Oc1ccc(/C=C2\CCCN=C2c2cccnc2)cc1 [3-(4-Acetoxybenzylidene)anabaseine],602
2,"CC(=O)Nc1ccc(/C=C2\CCCN=C2c2cccnc2)cc1 [N-(4-((2-(pyridin-3-yl)-5,6-dihydropyridin-3(4H)-ylidene)methyl)phenyl)acetamide]",420
3,C(=C1/CCCN=C1c1cccnc1)/c1cc2ccccc2o1 [3-(Benzofuran-2-ylmethylene)anabaseine],772
4,CCC(CC)Oc1cc(OC)ccc1/C=C1\CCCN=C1c1cccnc1 [3-[2-(Pentan-3-yloxy)-4-methoxybenzylidene]anabaseine],367
5,COc1ccc(/C=C2\CCCN=C2c2cccnc2)c(OC(C)C)c1 [3-(2-i-Propoxy-4-methoxybenzylidene)anabaseine],770
6,CN(C)c1ccc(/C=C2\CCCN=C2c2cccnc2)cc1 [3-(4-Dimethylaminobenzylidene)anabaseine],770
7,"COc1cc(/C=C2\CCCN=C2c2cccnc2)cc(OC)c1OC [3-(3,4,5-Trimethoxybenzylidene)anabaseine]",669
8,CCCc1ccc(/C=C2\CCCN=C2c2cccnc2)cc1 [3-(4-n-Propylbenzylidene)anabaseine],51
9,Nc1ccc(/C=C2\CCCN=C2c2cccnc2)cc1 [3-(4-Aminobenzylidene)anabaseine],921
